# What was measured:
# [1] = tested on: WistarF/Han (WF) rats; experiment: Social interaction (SI) test with Y1R antagonist pre-treatment (Example 4); type: in vivo; conditions: i.c.v., isoleucyl thiazolidine 50nmol and/or NPY 0.8nmol, without antagonist; Fig. 10
# Protocol: (§1) Animals. Male WistarF/Han (WF) rats (Central Animal Laboratory, Hannover Medical School, Hannover, Germany, see http://www.mh-hannover.de/institut/tierlabor/wf.htm for details), weighing 330±31 g±SD, were housed in a sound-proof, temperature controlled (24.0±0.5°C) room under specific pathogen free conditions with a 12/12h dark/light cycle (lights on at 07.00 with illumination level of 80 Lux). Food (Altromin lab chow pellets) and tap water were available ad libitum. Under ketamine/xylasine (100/5 mg/kg, i.p.) anesthesia, the rats were fixed in a Kopf stereotaxic frame and implanted with cannulae (Plastic One, Inc., Roanoke, VA, USA) above the lateral ventricle. All research and animal care procedures were approved by the Lower Saxony district government (Hannover, Germany) and followed principles described in the European Community's Council Directive of 24 November 1986 (86/609/EEC).
# Surgery and i.c.v. application. […]
# Animals were randomly divided into eight experimental groups (n=6-8/group), which completed one SI test of anxiety: (1) aCSF+aCSF+aCSF; (2) BIBP+aCSF+aCSF; (3) aCSF+isoleucyl thiazolidine+aCSF; (4) BIBP+isoleucyl thiazolidine+aCSF; (5) aCSF+aCSF+NPY; (6) BIBP+aCSF+NPY; (7) aCSF+P32/89+NPY; (8) BIBP+isoleucyl thiazolidine+NPY. […] The time spent in active social interaction (SI-time), 1h, and 12h food-intake were measured. […]
# Social interaction (SI) test. […] Behavior was monitored using a video camera placed above the field inside the testing/isolation box. The SI behavior of both rats was recorded on-line from a monitor placed outside on top of the box. The following parameters were scored by an observer (HPN) unaware of the substrain of rats: duration of time spent in sniffing, following, crawling under and over other rats, but not passive body contact (resting, sleeping). […]
# (§2) Statistical analysis. Data obtained from the measures SI time and 1h food intake were analyzed by one-way (factor: "treatment") ANOVA. […]
# [2] = tested on: WistarF/Han (WF) rats; experiment: 1h food intake with Y1R antagonist pre-treatment (Example 4); type: in vivo; conditions: i.c.v., isoleucyl thiazolidine 50nmol, Fig. 11
# Protocol: as §1
# Surgery and i.c.v. application. For surgery, rats were anesthetized and prepared with i.c.v. cannulae (coordinates: A:-0.7mm caudal, L:1.4mm lateral to bregma; and V3.2mm ventral to the skull surface; tooth bar +3.0 above ear bars) using standard stereotaxic procedures as described in detail elsewhere (von Hörsten et al., 1998a,b,c). After a 7-day recovery period, successful ventricle cannulation was confirmed by an angiotensin drinking response (von Hörsten et al., 1998a). Rats showing a positive drinking response (n=56) were then habituated to experimental handling by daily sham injections for seven days.
# Animals were randomly divided into eight experimental groups (n=6-8/group), which completed one SI test of anxiety: (1) aCSF+aCSF+aCSF; (2) BIBP+aCSF+aCSF; (3) aCSF+isoleucyl thiazolidine+aCSF; (4) BIBP+isoleucyl thiazolidine+aCSF; (5) aCSF+aCSF+NPY; (6) BIBP+aCSF+NPY; (7) aCSF+P32/89+NPY; (8) BIBP+isoleucyl thiazolidine+NPY. Animals in each group were treated in an identical way in each phase, receiving i.c.v. injections -60mins and -55min before behavioral testing. Experiments spanned two nights with groups counterbalances on both dark cycles. The injection cannula was attached to a Hamilton microsyringe with approximately 30cm of polyethylene tubing and all compounds were infused in a total volume of 5.0µl at a rate of 5.0 µl/min using a TSE multichannel infusion pump (Bad Homburg, Germany). The time spent in active social interaction (SI-time), 1h, and 12h food-intake were measured.
# Peptides and Antagonist. Rat neuropeptide Y1-36 was obtained from Polypeptide Laboratories (Wolfenbüttel, Germany). The NPY Y1 receptor antagonist BIBP3226 was purchased from American Peptide Company, Sunnyvale, CA, USA (Cat#:60-1-22B). […]
# as §2
smiles,measurement,setting,value
CCC(C)C(N)C(=O)N1CCSC1 (stereo not drawn) [isoleucyl thiazolidine],anxiolytic-like effect in the SI test (SI-time),[1],acts not anxiolytic-like
same,1h feeding under Y1R blockade,"[2]; BIBP3226 100nmol pre-treatment, NPY 0.8nmol",blocked
same,1h food-intake,[2]; without antagonist,non-significant slight increase

# Reference: patent publication EP1891948A1, “Treatment of neurological and neuropsychological disorders” (Probiodrug AG, priority 2000, dated 2002)
